Experimental data: the kinase profiling compilation of Christmann-Franck et al. (2016)

What was measured:
Assay in all cases: KINOMEscan competition binding
Conditions in all cases: compound 10.0 µM
ACVR1 (human) = ACVR1 (human) (UniProt Q04771)
ADCK4 (human) = ADCK4 (human) (UniProt Q96D53)
AURKA (human) = AURKA (human) (UniProt O14965)
AURKB (human) = AURKB (human) (UniProt Q96GD4)
AURKC (human) = AURKC (human) (UniProt Q9UQB9)
CAMKK1 (human) = CAMKK1 (human) (UniProt Q8N5S9)
CDC2L2 (human) = CDC2L2 (human) (UniProt Q9UQ88)
Chain of CDC2L2 (human) (Q9UQ88 whole entry, looked up): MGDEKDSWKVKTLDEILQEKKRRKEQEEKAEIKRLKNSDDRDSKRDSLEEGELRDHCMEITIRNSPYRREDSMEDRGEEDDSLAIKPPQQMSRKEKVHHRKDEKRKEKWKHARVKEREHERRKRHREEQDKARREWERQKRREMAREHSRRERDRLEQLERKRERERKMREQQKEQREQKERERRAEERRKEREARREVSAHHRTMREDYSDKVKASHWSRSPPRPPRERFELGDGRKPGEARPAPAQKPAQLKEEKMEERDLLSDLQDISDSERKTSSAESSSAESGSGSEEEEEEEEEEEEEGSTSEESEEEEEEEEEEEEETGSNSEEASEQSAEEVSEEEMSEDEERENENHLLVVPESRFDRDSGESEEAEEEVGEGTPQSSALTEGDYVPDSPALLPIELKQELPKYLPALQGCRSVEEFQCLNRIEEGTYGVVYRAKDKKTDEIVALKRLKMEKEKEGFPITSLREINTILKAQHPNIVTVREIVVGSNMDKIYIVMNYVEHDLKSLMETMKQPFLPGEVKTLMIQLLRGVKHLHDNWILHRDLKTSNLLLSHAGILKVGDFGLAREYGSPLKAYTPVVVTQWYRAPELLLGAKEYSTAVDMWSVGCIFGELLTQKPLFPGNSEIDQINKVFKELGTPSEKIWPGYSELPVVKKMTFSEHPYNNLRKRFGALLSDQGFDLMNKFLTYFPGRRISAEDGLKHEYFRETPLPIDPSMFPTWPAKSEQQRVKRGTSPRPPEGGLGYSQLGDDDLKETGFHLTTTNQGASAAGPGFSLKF

CDC42BPG (human) = CDC42BPG (human) (UniProt Q6DT37)
CDK18 (human) = CDK18 (human) (UniProt Q07002)
CHEK1 (human) = CHEK1 (human) (UniProt O14757)
[1] = system: EGFR (human), P00533 [752-759 del]
[2] = system: EGFR (human), P00533 [T790M]
EPHB4 (human) = EPHB4 (human) (UniProt P54760)
ERBB4 (human) = ERBB4 (human) (UniProt Q15303)
IRAK4 (human) = IRAK4 (human) (UniProt Q9NWZ3)
MAP3K10 (human) = MAP3K10 (human) (UniProt Q02779)
MAP3K11 (human) = MAP3K11 (human) (UniProt Q16584)
MAP4K3 (human) = MAP4K3 (human) (UniProt Q8IVH8)
MAPK10 (human) = MAPK10 (human) (UniProt P53779)
MAPK3 (human) = MAPK3 (human) (UniProt P27361)
MKNK2 (human) = MKNK2 (human) (UniProt Q9HBH9)
MST4 (human) = MST4 (human) (UniProt Q9P289)
Chain of MST4 (human) (Q9P289 whole entry, looked up): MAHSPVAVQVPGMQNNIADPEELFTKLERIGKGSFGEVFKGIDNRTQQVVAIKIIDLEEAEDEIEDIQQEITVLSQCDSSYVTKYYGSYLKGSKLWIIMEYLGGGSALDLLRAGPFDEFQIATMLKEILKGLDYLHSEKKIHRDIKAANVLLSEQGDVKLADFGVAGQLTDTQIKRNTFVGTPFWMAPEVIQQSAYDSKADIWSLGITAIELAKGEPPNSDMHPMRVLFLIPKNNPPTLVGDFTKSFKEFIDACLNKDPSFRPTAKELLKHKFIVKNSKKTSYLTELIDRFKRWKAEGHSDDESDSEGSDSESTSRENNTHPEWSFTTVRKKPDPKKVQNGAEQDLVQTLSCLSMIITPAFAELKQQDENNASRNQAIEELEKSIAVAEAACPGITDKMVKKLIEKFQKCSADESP

NEK3 (human) = NEK3 (human) (UniProt P51956)
NIM1 (human) = NIM1 (human) (UniProt Q8IY84)
NTRK3 (human) = NTRK3 (human) (UniProt Q16288)
NUAK1 (human) = NUAK1 (human) (UniProt O60285)
Chain of NUAK1 (human) (O60285 whole entry, looked up): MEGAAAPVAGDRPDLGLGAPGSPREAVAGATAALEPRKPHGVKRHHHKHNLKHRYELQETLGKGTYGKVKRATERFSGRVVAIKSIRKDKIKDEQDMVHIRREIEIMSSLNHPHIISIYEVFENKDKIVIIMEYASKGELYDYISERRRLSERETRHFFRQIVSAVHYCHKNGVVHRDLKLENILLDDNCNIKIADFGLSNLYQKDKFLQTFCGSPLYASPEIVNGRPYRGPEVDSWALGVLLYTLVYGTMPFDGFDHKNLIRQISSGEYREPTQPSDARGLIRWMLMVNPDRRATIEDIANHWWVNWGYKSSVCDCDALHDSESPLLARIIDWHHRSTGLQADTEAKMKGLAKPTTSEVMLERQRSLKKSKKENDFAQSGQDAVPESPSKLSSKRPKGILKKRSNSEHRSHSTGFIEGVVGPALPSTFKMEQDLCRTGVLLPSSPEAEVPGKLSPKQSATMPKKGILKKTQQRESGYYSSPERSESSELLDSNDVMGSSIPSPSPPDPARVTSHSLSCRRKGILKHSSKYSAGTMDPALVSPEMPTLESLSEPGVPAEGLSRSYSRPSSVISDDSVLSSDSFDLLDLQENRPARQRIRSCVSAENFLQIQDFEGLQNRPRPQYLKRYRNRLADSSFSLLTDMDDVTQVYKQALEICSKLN

PKMYT1 (human) = PKMYT1 (human) (UniProt Q99640)
Chain of PKMYT1 (human) (Q99640 whole entry, looked up): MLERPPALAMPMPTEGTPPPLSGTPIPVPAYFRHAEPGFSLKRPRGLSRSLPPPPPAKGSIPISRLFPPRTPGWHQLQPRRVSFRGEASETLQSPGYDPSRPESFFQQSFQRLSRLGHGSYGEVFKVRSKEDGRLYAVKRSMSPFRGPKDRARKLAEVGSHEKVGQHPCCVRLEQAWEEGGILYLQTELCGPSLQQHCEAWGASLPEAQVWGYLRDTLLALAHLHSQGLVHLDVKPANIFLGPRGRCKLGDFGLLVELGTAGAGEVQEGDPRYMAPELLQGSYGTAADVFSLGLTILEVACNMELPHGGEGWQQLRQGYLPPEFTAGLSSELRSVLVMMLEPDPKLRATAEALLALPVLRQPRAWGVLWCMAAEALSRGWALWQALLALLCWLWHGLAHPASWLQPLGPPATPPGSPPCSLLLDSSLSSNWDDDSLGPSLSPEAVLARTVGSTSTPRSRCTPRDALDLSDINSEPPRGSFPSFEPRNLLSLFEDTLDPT

PRKAA2 (human) = PRKAA2 (human) (UniProt P54646)
Chain of PRKAA2 (human) (P54646 whole entry, looked up): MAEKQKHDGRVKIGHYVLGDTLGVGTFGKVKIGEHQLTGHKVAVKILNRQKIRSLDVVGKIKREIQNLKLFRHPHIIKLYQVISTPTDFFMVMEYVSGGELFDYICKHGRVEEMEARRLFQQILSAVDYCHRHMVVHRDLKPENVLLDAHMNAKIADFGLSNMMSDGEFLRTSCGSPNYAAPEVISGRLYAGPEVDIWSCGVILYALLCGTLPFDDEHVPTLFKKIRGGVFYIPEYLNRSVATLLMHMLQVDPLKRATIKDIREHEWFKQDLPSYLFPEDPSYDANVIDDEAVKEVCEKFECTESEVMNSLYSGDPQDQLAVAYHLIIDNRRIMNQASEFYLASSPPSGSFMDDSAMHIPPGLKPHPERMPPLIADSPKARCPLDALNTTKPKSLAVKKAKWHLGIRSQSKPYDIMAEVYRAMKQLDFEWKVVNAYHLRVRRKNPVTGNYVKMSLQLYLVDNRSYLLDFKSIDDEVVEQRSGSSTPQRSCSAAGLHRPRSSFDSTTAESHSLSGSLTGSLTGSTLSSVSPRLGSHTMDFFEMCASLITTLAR

PRKACA (human) = PRKACA (human) (UniProt P17612)
RAF1 (human) = RAF1 (human) (UniProt P04049)
RET (human) = RET (human) (UniProt P07949)
RPS6KA1 KD2 (human) = RPS6KA1 KD2 (human) (UniProt Q15418)
Chain of RPS6KA1 KD2 (human) (Q15418 whole entry, looked up): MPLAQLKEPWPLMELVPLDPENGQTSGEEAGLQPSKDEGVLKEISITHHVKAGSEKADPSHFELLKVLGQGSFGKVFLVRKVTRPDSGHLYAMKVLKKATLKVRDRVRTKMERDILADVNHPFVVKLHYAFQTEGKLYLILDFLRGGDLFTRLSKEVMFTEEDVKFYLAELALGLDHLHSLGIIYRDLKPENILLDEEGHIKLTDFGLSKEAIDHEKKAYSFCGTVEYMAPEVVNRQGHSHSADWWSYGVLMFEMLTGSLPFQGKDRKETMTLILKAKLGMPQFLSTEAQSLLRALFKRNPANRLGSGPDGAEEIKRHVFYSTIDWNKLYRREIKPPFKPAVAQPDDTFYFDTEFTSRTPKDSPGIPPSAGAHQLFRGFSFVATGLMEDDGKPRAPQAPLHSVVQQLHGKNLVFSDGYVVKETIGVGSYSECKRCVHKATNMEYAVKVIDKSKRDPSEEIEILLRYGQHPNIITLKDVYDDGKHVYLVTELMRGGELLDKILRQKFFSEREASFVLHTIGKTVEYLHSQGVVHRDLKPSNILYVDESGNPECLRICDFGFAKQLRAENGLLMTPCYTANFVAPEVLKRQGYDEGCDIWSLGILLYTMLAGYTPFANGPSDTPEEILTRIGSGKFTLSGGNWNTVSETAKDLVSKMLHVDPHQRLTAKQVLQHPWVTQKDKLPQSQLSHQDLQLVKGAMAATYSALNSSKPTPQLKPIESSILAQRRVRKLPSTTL

RPS6KA3 KD1 (human) = RPS6KA3 KD1 (human) (UniProt P51812)
STK24 (human) = STK24 (human) (UniProt Q9Y6E0)
STK3 (human) = STK3 (human) (UniProt Q13188)
STK39 (human) = STK39 (human) (UniProt Q9UEW8)
STK4 (human) = STK4 (human) (UniProt Q13043)
TAOK2 (human) = TAOK2 (human) (UniProt Q9UL54)
TGFBR1 (human) = TGFBR1 (human) (UniProt P36897)
TNIK (human) = TNIK (human) (UniProt Q9UKE5)
TSSK1B (human) = TSSK1B (human) (UniProt Q9BXA7)

Chain of CAMKK1 (human) (Q8N5S9 whole entry, looked up): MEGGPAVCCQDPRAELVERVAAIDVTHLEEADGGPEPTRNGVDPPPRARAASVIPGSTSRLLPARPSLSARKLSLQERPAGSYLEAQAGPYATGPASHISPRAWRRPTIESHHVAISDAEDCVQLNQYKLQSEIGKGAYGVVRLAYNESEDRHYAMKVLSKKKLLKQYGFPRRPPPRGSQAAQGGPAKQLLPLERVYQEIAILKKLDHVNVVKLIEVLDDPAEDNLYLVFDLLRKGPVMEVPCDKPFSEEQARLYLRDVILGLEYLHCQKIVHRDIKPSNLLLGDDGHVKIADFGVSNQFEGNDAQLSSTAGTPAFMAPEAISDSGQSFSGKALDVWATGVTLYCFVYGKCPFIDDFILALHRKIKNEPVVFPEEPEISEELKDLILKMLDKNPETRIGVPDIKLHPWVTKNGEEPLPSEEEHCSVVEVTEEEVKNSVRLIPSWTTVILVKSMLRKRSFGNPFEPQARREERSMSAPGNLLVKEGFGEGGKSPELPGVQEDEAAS
Chain of ACVR1 (human) (Q04771 whole entry, looked up): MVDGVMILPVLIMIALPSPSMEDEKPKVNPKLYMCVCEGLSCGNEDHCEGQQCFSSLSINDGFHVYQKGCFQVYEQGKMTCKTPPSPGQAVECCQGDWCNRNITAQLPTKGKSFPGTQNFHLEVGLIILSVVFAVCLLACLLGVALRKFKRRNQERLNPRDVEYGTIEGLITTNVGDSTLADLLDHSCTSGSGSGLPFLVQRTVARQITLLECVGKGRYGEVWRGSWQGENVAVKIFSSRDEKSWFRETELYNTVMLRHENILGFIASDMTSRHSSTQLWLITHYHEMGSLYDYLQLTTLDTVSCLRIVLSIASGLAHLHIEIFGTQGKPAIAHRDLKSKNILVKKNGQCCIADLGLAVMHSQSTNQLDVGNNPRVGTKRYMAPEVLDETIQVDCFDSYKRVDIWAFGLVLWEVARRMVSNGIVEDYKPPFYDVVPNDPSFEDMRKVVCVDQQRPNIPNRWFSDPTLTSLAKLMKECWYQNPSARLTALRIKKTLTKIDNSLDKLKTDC
Chain of AURKB (human) (Q96GD4 whole entry, looked up): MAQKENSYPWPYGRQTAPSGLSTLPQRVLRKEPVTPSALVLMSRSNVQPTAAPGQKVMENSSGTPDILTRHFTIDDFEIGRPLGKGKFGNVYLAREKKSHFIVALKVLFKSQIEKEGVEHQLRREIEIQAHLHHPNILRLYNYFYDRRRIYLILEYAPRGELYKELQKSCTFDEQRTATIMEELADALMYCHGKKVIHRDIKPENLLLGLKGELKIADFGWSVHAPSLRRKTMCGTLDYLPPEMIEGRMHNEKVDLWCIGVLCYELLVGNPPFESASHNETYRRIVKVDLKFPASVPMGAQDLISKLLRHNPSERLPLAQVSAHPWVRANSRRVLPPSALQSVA

## COC(=O)Nc1ccc(-c2nc(N3CCOCC3)c3cnn(C4CCN(C(=O)OC)CC4)c3n2)cc1
ACVR1 (human)
  kinase still bound, per cent of control: 100%
ADCK4 (human)
  kinase still bound, per cent of control: 73%
AURKA (human)
  kinase still bound, per cent of control: 85%
AURKB (human)
  kinase still bound, per cent of control: 100%
AURKC (human)
  kinase still bound, per cent of control: 100%
CAMKK1 (human)
  kinase still bound, per cent of control: 100%
CDC2L2 (human)
  per cent of control: 100%
CDC42BPG (human)
  kinase still bound, per cent of control: 100%
CDK18 (human)
  per cent of control: 100%
CHEK1 (human)
  kinase still bound, per cent of control: 96%
[1]
  kinase still bound, per cent of control: 100%
[2]
  kinase still bound, per cent of control: 100%
EPHB4 (human)
  kinase still bound, per cent of control: 94%
ERBB4 (human)
  kinase still bound, per cent of control: 98%
IRAK4 (human)
  kinase still bound, per cent of control: 82%
MAP3K10 (human)
  kinase still bound, per cent of control: 100%
MAP3K11 (human)
  kinase still bound, per cent of control: 97%
MAP4K3 (human)
  kinase still bound, per cent of control: 74%
MAPK10 (human)
  kinase still bound, per cent of control: 100%
MAPK3 (human)
  kinase still bound, per cent of control: 99%
MKNK2 (human)
  kinase still bound, per cent of control: 40%
MST4 (human)
  kinase still bound, per cent of control: 80%
NEK3 (human)
  kinase still bound, per cent of control: 100%
NIM1 (human)
  kinase still bound, per cent of control: 100%
NTRK3 (human)
  kinase still bound, per cent of control: 100%
NUAK1 (human)
  kinase still bound, per cent of control: 72%
PKMYT1 (human)
  kinase still bound, per cent of control: 100%
PRKAA2 (human)
  kinase still bound, per cent of control: 100%
PRKACA (human)
  per cent of control: 100%
RAF1 (human)
  kinase still bound, per cent of control: 91%
RET (human)
  kinase still bound, per cent of control: 93%
RPS6KA1 KD2 (human)
  kinase still bound, per cent of control: 100%
RPS6KA3 KD1 (human)
  kinase still bound, per cent of control: 76%
STK24 (human)
  kinase still bound, per cent of control: 100%
STK3 (human)
  kinase still bound, per cent of control: 85%
STK39 (human)
  per cent of control: 67%
STK4 (human)
  kinase still bound, per cent of control: 100%
TAOK2 (human)
  kinase still bound, per cent of control: 73%
TGFBR1 (human)
  kinase still bound, per cent of control: 100%
TNIK (human)
  kinase still bound, per cent of control: 95%
TSSK1B (human)
  kinase still bound, per cent of control: 100%
